{"source": "ChEMBL document CHEMBL5385847", "about": "“Design, synthesis and biological evaluation of a new class of 7H-pyrrolo[2,3-d]pyrimidine derivatives as Mps1 inhibitors for the treatment of breast cancer” (Eur J Med Chem, 2023)", "key": {"HEY": {"test_system": "HEY", "assay": "Antiproliferative activity against human HEY cells assessed as inhibition of cell viability upto 10 uM incubated for 72 hrs by MTT assay", "type": "functional, cell-based"}, "[1]": {"target": "T1, Dual specificity protein kinase TTK (Homo sapiens, UniProt P33981)", "T1 sequence (P33981 whole entry)": "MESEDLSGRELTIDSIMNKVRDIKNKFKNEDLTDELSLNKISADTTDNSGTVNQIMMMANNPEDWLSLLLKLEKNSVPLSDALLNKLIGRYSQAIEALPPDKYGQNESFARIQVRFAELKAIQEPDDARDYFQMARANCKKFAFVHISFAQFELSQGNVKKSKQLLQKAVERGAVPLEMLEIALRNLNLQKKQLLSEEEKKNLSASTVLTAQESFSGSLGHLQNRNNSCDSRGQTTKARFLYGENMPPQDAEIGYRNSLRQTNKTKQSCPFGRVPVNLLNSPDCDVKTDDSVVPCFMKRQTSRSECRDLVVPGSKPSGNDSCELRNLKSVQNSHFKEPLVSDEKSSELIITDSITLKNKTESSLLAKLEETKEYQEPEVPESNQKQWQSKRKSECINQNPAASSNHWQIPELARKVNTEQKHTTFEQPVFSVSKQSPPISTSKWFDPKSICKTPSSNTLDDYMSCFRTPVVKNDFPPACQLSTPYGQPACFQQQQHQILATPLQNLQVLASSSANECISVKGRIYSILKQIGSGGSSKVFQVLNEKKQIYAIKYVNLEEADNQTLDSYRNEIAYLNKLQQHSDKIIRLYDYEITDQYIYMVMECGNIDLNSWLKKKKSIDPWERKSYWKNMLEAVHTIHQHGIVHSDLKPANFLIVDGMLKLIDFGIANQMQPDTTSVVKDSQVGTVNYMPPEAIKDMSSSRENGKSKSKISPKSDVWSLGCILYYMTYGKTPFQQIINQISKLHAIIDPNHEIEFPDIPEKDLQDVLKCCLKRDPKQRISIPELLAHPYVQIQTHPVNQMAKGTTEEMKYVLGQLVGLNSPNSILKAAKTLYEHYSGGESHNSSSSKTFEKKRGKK", "assay": "Inhibition of Mps1 (unknown origin) incubated for 120 mins in presence of substrate/ATP by ADP-Glo assay"}, "4T1 [2]": {"test_system": "4T1", "assay": "Antiproliferative activity against 4T1 cells assessed as inhibition of cell viability by MTT assay", "type": "functional, cell-based", "settings": "Mus musculus"}, "GES1": {"test_system": "GES1", "assay": "Antiproliferative activity against human GES1 cells assessed as inhibition of cell viability by MTT assay", "type": "toxicity, cell-based"}, "4T1 [3]": {"test_system": "4T1", "assay": "Antiproliferative activity against 4T1 cells upto 5 uM measured after 14 days by colony formation assay", "type": "functional, cell-based", "settings": "Mus musculus, time 14.0 day"}, "[4]": {"target": "Receptor-type tyrosine-protein kinase FLT3 (Homo sapiens) (UniProt P36888)", "sequence (P36888 whole entry)": "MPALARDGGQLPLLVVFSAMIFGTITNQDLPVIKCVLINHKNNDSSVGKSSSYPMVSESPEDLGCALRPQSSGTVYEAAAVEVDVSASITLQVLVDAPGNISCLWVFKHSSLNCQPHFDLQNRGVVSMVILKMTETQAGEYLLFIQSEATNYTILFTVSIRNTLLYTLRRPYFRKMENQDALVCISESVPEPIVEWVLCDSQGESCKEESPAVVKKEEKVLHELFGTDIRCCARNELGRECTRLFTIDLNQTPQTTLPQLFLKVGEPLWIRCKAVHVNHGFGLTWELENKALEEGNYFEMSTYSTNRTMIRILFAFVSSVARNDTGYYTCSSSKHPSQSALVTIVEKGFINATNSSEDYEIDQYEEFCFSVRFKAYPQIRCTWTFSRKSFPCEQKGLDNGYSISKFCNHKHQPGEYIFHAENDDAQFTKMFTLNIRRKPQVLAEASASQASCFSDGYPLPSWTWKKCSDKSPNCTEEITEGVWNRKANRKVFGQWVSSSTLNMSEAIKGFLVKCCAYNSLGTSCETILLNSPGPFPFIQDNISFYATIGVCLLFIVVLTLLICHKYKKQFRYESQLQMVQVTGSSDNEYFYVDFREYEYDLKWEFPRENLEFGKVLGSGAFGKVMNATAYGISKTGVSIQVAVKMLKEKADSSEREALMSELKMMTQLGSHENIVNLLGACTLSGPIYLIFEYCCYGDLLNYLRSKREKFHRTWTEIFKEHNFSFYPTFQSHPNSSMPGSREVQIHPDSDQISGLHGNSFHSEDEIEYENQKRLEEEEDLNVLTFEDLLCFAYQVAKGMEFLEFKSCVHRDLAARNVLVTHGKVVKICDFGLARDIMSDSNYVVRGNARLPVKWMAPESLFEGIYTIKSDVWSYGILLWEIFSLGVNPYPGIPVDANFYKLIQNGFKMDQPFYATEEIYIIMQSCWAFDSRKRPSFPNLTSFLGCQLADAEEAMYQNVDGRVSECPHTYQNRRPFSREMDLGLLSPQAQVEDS", "assay": "Inhibition of human FLT3 at 0.1 uM by KINOMEscan assay relative to control"}, "[5]": {"assay": "Antitumor activity against mouse 4T1-Luc cells xenografted in BALB/C mouse assessed as reduction in mean tumor weight at 30 mg/kg, po qd treated for 15 days (reference value: 3.56 g)", "type": "functional", "settings": "time 15 day"}, "[6]": {"target": "Proto-oncogene tyrosine-protein kinase Src (Homo sapiens) (UniProt P12931)", "sequence (P12931 2-536 limits assumed)": "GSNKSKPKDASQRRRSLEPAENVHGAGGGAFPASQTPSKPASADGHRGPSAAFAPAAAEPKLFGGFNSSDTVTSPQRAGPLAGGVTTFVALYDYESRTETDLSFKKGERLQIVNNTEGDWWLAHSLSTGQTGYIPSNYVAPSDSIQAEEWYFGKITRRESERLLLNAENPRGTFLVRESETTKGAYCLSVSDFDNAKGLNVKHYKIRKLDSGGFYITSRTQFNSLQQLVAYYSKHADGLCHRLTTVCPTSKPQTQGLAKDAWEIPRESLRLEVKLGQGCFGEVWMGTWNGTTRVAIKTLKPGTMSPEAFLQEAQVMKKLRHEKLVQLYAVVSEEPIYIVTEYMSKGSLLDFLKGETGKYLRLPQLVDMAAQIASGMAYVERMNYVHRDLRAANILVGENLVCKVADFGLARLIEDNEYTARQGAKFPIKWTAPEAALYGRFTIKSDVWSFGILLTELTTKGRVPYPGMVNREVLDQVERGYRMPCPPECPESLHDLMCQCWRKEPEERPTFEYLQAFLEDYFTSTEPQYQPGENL", "assay": "Inhibition of human cSRC at 1 uM by KINOMEscan assay relative to control"}, "[7]": {"target": "T2, Dual specificity protein kinase TTK (Homo sapiens) (UniProt P33981)", "T2 sequence (whole entry)": "T1 sequence (P33981 whole entry)", "assay": "Inhibition of human Mps1 at 0.1 uM by KINOMEscan assay relative to control"}, "[8]": {"target": "T2, Dual specificity protein kinase TTK (Homo sapiens)", "assay": "Inhibition of human Mps1 at 1 uM by KINOMEscan assay relative to control"}, "4T1 [9]": {"test_system": "4T1", "assay": "Induction of apoptosis in 4T1 cells assessed as late apoptotic cells at 5 uM incubated for 48 hrs by Annexin V-FITC/PI staining based flow cytometry (reference value: 1.73 %)", "type": "functional, Mus musculus"}, "HCT-116": {"test_system": "HCT-116", "assay": "Antiproliferative activity against human HCT-116 cells assessed as inhibition of cell viability upto 10 uM incubated for 72 hrs by MTT assay", "type": "functional, cell-based"}, "4T1 [10]": {"test_system": "4T1", "assay": "Induction of apoptosis in 4T1 cells assessed as early apoptotic cells at 1 uM incubated for 48 hrs by Annexin V-FITC/PI staining based flow cytometry (reference value: 0.32 %)", "type": "functional, Mus musculus"}, "MCF7 [11]": {"test_system": "MCF7", "assay": "Induction of apoptosis in human MCF7 cells assessed as necrotic cells at 1 uM incubated for 48 hrs by Annexin V-FITC/PI staining based flow cytometry (reference value: 0.03 %)", "type": "functional"}, "MCF7 [12]": {"test_system": "MCF7", "assay": "Induction of apoptosis in human MCF7 cells assessed as necrotic cells at 0.5 uM incubated for 48 hrs by Annexin V-FITC/PI staining based flow cytometry (reference value: 0.03 %)", "type": "functional"}, "Vero": {"test_system": "Vero", "assay": "Antiproliferative activity against African green monkey Vero cells assessed as inhibition of cell viability by MTT assay", "type": "toxicity, cell-based", "settings": "chlorocebus sabaeus"}, "L02": {"test_system": "L02", "assay": "Antiproliferative activity against human L02 cells assessed as inhibition of cell viability by MTT assay", "type": "toxicity, cell-based"}, "4T1-Luc": {"test_system": "4T1-Luc", "assay": "Inhibition of cell proliferation in mouse 4T1-Luc cells xenografted in BALB/C mouse assessed as reduction in Ki-67 positive cells at 30 to 60 mg/kg, po qd treated for 15 days by IHC analysis", "type": "functional, organism-based", "settings": "dose 30-60 mg/kg, time 15.0 day"}, "4T1 [13]": {"test_system": "4T1", "assay": "Induction of apoptosis in 4T1 cells assessed as necrotic cells at 5 uM incubated for 48 hrs by Annexin V-FITC/PI staining based flow cytometry (reference value: 0.20 %)", "type": "functional, Mus musculus"}, "A549": {"test_system": "A549", "assay": "Antiproliferative activity against human A549 cells assessed as inhibition of cell viability by MTT assay", "type": "functional, cell-based"}, "MCF7 [14]": {"test_system": "MCF7", "assay": "Antiproliferative activity against human MCF7 cells assessed as inhibition of cell viability incubated for 24 to 72 hrs by MTT assay", "type": "functional, cell-based", "settings": "dose <= 10.0 µM, time 24-72 hrs"}, "4T1 [15]": {"test_system": "4T1", "assay": "Induction of apoptosis in 4T1 cells assessed as increase in cleaved caspase-3 level upto 3 uM incubated for 48 hrs by Western blot analysis", "type": "functional, cell-based", "settings": "Mus musculus"}, "MCF7 [16]": {"test_system": "MCF7", "assay": "Induction of apoptosis in human MCF7 cells assessed as late apoptotic cells at 0.5 uM incubated for 48 hrs by Annexin V-FITC/PI staining based flow cytometry (reference value: 0.63 %)", "type": "functional"}, "[17]": {"target": "Receptor-type tyrosine-protein kinase FLT3 (Homo sapiens) (UniProt P36888)", "assay": "Inhibition of human FLT3 at 1 uM by KINOMEscan assay relative to control"}, "HEK293": {"test_system": "HEK293", "assay": "Antiproliferative activity against HEK293 cells assessed as inhibition of cell viability by MTT assay", "type": "toxicity, cell-based", "settings": "human"}, "MCF7 [18]": {"test_system": "MCF7", "assay": "Induction of DNA damage in human MCF7 cells assessed as increase in gamma-H2AX level incubated for 2 hrs by Western blot analysis", "type": "functional, cell-based", "settings": "dose <= 3.0 µM"}, "[19]": {"target": "Angiopoietin-1 receptor (Homo sapiens) (UniProt Q02763)", "sequence (Q02763 whole entry)": "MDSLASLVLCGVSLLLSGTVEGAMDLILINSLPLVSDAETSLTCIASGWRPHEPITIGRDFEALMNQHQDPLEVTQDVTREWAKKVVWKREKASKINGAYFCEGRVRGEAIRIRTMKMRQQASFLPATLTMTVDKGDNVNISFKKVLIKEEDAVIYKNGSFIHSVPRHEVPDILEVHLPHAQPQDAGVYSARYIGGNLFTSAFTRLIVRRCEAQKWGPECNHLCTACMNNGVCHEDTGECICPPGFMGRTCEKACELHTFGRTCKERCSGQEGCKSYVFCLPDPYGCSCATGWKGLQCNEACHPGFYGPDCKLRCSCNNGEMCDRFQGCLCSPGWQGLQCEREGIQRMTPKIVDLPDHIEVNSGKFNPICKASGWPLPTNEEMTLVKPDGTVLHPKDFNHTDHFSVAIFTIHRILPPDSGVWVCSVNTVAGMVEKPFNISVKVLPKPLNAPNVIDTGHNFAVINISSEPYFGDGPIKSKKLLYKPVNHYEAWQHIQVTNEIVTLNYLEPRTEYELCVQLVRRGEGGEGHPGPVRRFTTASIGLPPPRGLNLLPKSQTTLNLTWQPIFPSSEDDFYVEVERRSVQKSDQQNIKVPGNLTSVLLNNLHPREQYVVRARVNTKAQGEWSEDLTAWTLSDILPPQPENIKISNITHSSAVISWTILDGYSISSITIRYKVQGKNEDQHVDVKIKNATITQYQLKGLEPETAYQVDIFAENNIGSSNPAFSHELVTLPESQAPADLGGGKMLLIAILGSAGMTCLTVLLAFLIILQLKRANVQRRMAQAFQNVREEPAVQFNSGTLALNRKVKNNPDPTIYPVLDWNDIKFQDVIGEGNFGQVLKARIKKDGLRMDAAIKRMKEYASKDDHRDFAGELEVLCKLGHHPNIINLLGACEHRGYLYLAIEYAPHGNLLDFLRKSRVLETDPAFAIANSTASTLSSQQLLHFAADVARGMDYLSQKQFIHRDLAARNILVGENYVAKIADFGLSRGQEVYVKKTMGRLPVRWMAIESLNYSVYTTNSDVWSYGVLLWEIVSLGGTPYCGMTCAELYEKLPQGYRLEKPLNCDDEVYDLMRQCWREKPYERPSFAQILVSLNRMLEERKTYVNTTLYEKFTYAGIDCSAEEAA", "assay": "Inhibition of human Tie2 at 0.1 uM by KINOMEscan assay relative to control"}, "MCF7 [20]": {"test_system": "MCF7", "assay": "Induction of apoptosis in human MCF7 cells assessed as increase in cleaved caspase-3 level upto 3 uM incubated for 48 hrs by Western blot analysis", "type": "functional, cell-based"}, "4T1 [21]": {"test_system": "4T1", "assay": "Induction of apoptosis in 4T1 cells assessed as early apoptotic cells at 5 uM incubated for 48 hrs by Annexin V-FITC/PI staining based flow cytometry (reference value: 0.32 %)", "type": "functional, Mus musculus"}}, "note": "The source made the active and inactive calls. No cut-off for these calls is given here."}
{"smiles": "CN1CCN(c2ccc(Nc3nc(-n4nc(N)c5ccccc54)c4cc[nH]c4n3)cc2)CC1", "values": [{"measurement": "inhibition", "setting": "HEY", "value": "Active"}, {"measurement": "IC50", "setting": "[1]", "value": 29, "unit": "nM"}, {"measurement": "IC50", "setting": "4T1 [2]", "value": 400, "unit": "nM"}, {"measurement": "Activity", "setting": "GES1", "value": "Non-Toxic"}, {"measurement": "Activity", "setting": "4T1 [3]", "value": "Active"}, {"measurement": "inhibition", "setting": "[4]", "value": 86, "unit": "%"}, {"measurement": "Activity", "setting": "[5]", "value": 1.4, "unit": "g"}, {"measurement": "inhibition", "setting": "[6]", "value": 96, "unit": "%"}, {"measurement": "inhibition", "setting": "[7]", "value": 87, "unit": "%"}, {"measurement": "inhibition", "setting": "[8]", "value": "> 90", "unit": "%"}, {"measurement": "Activity", "setting": "4T1 [9]", "value": 20.66, "unit": "%"}, {"measurement": "inhibition", "setting": "HCT-116", "value": "Active"}, {"measurement": "Activity", "setting": "4T1 [10]", "value": 1.61, "unit": "%"}, {"measurement": "Activity", "setting": "MCF7 [11]", "value": 0.26, "unit": "%"}, {"measurement": "Activity", "setting": "MCF7 [12]", "value": 0.17, "unit": "%"}, {"measurement": "Activity", "setting": "Vero", "value": "Non-Toxic"}, {"measurement": "Activity", "setting": "L02", "value": "Non-Toxic"}, {"measurement": "inhibition", "setting": "4T1-Luc", "value": "Active"}, {"measurement": "Activity", "setting": "4T1 [13]", "value": 0.32, "unit": "%"}, {"measurement": "IC50", "setting": "A549", "value": 2030, "unit": "nM"}, {"measurement": "inhibition", "setting": "MCF7 [14]", "value": "Dose-Dependent Effect"}, {"measurement": "Activity", "setting": "4T1 [15]", "value": "Active"}, {"measurement": "Activity", "setting": "MCF7 [16]", "value": 4.51, "unit": "%"}, {"measurement": "inhibition", "setting": "[17]", "value": 92, "unit": "%"}, {"measurement": "Activity", "setting": "HEK293", "value": "Non-Toxic"}, {"measurement": "Activity", "setting": "MCF7 [18]", "value": "Dose-Dependent Effect"}, {"measurement": "inhibition", "setting": "[19]", "value": 28, "unit": "%"}, {"measurement": "Activity", "setting": "MCF7 [20]", "value": "Active"}, {"measurement": "Activity", "setting": "4T1 [21]", "value": 2.71, "unit": "%"}]}
